The record followed here is ChEMBL document CHEMBL5465560, “Selectivity Literature for EUbOPEN Chemogenomic Library” (2024).

Experiment [1] has as its target T1, Dual specificity mitogen-activated protein kinase kinase 3 (Homo sapiens) (UniProt P46734).
T1 sequence (whole entry): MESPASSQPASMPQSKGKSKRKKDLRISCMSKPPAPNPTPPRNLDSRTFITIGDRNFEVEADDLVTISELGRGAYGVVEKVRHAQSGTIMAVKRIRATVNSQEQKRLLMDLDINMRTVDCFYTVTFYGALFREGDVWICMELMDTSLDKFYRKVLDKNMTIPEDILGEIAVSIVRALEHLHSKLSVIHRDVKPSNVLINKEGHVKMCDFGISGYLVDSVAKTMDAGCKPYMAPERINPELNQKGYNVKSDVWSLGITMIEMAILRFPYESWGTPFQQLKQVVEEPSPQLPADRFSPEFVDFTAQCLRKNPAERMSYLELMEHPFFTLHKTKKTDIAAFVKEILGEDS
The settings on record: at 10 µM.

The target of experiment [2] is Tyrosine-protein kinase Fgr (Homo sapiens) (UniProt P09769). Nature of the experiment: Selectivity interaction (Ambit KINOMEscan and KiNATiv profiling in Jurkat cells) EUB0000090b FGR. The format is cell-based. The settings on record: at 1 µM.
Experiment [3] has as its target T2, Interleukin-1 receptor-associated kinase 3 (Homo sapiens) (UniProt Q9Y616).
T2 sequence (whole entry): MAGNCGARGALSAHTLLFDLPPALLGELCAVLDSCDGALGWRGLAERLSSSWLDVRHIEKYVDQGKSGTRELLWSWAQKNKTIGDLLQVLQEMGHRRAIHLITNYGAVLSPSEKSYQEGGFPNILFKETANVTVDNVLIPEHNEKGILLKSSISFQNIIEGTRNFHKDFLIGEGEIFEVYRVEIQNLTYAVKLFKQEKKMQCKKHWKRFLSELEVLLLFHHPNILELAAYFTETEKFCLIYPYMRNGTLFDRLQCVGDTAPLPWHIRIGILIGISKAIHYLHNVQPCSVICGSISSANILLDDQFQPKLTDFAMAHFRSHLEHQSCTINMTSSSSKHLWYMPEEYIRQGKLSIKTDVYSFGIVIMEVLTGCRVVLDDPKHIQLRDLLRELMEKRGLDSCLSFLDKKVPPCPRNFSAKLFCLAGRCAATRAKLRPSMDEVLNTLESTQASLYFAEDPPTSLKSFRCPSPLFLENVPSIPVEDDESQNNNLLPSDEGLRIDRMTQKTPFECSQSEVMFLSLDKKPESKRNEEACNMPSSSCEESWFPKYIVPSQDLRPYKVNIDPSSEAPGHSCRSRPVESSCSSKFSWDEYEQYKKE
Kind of experiment: Selectivity interaction (KinomeScan (DiscoverX)) EUB0000092b IRAK3. The settings on record: at 10 µM.

Experiment [4] concerns the target T3, Phosphatidylinositol 5-phosphate 4-kinase type-2 gamma (Homo sapiens) (UniProt Q8TBX8).
T3 sequence (whole entry): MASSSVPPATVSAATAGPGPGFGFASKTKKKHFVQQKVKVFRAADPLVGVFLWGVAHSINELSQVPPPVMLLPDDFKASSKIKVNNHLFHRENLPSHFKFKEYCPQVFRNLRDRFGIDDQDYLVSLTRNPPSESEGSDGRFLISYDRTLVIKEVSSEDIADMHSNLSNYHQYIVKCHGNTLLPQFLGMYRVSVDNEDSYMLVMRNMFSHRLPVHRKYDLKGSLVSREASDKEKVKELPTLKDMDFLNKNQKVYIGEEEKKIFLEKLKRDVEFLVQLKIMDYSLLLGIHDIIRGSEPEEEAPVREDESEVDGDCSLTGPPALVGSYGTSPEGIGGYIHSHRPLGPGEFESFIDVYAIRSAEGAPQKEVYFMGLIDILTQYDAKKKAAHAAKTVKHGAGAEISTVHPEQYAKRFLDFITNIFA
Nature of the experiment: Selectivity interaction (KinomeScan (DiscoverX)) EUB0000045b PIP4K2C.

Experiment [5] has as its target Histone-lysine N-methyltransferase, H3 lysine-36 specific (Homo sapiens) (UniProt Q96L73). Conditions: at 10 µM.
Experiment [6] has as its target Casein kinase I isoform delta (Homo sapiens, UniProt P48730). Kind of experiment: Selectivity interaction (KinomeScan (DiscoverX)) EUB0000607a CSNK1D. The settings on record: at 10 µM.
The target of experiment [7] is MAP kinase-activated protein kinase 2 (Homo sapiens, UniProt P49137). Kind of experiment: Selectivity interaction (SelectScreen profiling (Invitrogen)) EUB0000607a MAPKAPK2. Conditions: at 2 µM.
Experiment [8] concerns the target T4, Phosphatidylinositol 4,5-bisphosphate 3-kinase catalytic subunit delta isoform (Homo sapiens) (UniProt O00329).
T4 sequence (whole entry): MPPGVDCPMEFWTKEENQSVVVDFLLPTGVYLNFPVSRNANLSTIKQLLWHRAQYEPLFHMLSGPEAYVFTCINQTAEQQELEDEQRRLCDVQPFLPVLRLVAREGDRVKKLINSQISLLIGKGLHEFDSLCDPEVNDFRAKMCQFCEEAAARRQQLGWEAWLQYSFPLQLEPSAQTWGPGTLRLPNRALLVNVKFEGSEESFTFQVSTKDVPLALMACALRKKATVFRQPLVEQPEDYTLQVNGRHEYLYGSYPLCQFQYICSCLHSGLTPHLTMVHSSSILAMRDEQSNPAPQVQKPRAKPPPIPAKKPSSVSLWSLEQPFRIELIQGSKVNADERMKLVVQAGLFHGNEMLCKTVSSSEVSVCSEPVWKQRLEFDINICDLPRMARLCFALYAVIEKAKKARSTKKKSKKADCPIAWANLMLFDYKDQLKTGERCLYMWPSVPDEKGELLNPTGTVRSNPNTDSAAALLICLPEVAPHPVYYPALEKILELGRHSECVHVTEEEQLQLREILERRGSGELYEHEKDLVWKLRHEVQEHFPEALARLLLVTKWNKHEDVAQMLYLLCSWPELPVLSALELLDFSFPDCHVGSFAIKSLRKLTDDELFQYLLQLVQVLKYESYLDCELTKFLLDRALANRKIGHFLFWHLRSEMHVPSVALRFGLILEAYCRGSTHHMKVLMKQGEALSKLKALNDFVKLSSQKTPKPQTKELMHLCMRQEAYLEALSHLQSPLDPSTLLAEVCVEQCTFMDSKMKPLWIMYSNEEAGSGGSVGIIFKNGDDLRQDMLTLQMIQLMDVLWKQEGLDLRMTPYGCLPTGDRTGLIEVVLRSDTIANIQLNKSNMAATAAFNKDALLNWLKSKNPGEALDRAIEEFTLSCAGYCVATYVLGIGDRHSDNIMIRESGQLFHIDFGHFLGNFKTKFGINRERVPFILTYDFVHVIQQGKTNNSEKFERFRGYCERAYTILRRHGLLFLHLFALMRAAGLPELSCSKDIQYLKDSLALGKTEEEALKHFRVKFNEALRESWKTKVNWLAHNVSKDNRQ
Nature of the experiment: Selectivity interaction (ActivX KiNativ screen (kinase selectivity in THP-1 cell lysates)) EUB0000639a PIK3CD. The format is subcellular. The settings on record: lysate, at 0.04 µM.

Experiment [9] addresses Mitogen-activated protein kinase kinase kinase 20 (Homo sapiens) (UniProt Q9NYL2). Nature of the experiment: Selectivity interaction (KinomeScan (DiscoverX)) EUB0000595a MAP3K20. Conditions: at 10 µM.
For experiment [10], the target named is Phosphatidylinositol 4-phosphate 5-kinase type-1 alpha (Homo sapiens) (UniProt Q99755). Nature of the experiment: Selectivity interaction (KinomeScan (DiscoverX)) EUB0000618a PIP5K1A. The settings on record: at 10 µM.

Sequence of Histone-lysine N-methyltransferase, H3 lysine-36 specific (Homo sapiens) (Q96L73 whole entry, canonical isoform): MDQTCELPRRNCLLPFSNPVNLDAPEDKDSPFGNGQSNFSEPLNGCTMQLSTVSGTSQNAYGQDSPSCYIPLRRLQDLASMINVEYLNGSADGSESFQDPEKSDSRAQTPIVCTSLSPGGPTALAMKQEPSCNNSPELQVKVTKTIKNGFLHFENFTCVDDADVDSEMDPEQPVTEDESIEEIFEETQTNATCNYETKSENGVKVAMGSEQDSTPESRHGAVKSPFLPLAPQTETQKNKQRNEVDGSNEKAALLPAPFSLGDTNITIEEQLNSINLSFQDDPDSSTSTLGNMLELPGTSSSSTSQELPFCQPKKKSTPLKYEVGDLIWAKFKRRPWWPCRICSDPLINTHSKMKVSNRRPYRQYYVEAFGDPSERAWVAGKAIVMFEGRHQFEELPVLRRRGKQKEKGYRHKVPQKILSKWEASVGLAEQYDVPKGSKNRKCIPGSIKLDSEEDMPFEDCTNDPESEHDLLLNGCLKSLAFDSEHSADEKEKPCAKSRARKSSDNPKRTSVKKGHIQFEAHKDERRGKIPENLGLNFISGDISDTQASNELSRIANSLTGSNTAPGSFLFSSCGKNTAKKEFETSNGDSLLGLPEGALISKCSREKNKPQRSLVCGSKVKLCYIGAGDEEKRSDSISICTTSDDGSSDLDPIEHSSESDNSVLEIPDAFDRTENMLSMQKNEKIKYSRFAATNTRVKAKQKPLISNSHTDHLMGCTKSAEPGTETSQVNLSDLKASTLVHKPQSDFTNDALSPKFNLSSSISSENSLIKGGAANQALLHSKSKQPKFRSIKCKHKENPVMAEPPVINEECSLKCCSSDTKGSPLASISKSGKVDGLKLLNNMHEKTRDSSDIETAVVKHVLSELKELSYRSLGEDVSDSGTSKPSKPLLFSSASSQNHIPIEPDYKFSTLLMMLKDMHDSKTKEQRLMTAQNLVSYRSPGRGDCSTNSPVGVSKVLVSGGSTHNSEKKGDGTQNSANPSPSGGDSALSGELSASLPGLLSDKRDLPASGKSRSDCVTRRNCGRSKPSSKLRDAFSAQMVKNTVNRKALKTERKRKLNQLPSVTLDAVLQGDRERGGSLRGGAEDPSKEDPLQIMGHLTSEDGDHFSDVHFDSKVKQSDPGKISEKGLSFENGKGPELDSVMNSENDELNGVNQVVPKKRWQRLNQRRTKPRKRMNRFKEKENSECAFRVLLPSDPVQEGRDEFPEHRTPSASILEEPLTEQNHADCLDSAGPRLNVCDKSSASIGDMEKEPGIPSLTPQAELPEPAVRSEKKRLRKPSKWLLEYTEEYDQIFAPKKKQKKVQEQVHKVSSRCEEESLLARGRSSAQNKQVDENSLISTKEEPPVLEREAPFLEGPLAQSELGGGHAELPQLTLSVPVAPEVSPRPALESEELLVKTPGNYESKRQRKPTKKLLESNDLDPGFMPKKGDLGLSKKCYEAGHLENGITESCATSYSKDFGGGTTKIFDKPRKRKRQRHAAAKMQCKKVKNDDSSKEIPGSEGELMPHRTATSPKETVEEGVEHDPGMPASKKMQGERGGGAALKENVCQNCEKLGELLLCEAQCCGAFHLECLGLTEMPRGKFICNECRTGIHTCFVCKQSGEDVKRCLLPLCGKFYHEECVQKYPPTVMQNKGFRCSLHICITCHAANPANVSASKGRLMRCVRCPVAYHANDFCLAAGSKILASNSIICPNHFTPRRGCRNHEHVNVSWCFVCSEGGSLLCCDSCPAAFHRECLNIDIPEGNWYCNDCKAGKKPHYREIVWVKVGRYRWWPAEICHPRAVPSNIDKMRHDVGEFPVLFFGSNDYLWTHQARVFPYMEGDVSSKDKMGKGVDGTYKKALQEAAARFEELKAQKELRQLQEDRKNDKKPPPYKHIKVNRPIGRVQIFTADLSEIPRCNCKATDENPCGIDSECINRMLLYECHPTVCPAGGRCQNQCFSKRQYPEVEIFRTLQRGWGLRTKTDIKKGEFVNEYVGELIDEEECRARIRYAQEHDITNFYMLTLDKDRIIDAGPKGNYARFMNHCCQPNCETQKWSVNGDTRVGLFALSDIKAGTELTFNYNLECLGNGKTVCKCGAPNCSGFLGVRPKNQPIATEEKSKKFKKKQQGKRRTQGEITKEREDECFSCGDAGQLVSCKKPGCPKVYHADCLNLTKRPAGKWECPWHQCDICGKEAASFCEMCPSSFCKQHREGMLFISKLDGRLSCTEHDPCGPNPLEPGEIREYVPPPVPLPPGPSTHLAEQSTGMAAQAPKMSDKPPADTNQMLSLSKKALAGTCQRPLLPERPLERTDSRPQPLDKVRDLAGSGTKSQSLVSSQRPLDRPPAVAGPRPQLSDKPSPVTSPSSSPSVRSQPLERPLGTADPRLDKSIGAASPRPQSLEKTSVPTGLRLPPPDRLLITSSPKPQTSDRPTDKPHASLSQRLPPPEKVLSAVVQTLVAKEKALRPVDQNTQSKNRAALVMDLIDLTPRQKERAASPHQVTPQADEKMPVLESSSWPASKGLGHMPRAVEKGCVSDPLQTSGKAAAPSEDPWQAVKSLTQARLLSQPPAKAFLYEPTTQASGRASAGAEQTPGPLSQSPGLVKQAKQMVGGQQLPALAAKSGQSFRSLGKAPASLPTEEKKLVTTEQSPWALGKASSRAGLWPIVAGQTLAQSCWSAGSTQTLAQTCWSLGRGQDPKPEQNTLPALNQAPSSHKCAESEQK
Sequence of Mitogen-activated protein kinase kinase kinase 20 (Homo sapiens) (Q9NYL2 2-800 limits assumed): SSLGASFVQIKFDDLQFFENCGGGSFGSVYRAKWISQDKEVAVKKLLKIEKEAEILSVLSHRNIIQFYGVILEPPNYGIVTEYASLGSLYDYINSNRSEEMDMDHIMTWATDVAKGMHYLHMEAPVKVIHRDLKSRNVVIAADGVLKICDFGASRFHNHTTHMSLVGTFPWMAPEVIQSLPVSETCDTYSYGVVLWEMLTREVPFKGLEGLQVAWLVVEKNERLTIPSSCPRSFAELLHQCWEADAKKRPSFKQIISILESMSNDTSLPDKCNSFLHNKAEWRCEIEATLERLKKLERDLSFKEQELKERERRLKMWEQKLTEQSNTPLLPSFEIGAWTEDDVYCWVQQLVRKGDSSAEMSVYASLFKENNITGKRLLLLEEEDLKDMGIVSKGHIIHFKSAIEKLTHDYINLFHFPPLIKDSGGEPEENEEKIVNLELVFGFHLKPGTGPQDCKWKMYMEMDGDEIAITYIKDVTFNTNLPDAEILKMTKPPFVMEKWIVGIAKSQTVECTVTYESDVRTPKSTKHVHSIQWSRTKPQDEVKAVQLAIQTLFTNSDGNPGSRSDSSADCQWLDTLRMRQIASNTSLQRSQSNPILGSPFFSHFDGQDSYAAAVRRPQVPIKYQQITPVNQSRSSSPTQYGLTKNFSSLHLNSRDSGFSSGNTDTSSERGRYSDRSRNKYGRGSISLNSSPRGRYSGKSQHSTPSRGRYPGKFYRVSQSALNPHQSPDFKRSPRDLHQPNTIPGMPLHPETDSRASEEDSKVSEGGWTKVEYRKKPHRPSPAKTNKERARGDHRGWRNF
Sequence of MAP kinase-activated protein kinase 2 (P49137 whole entry, looked up, canonical isoform): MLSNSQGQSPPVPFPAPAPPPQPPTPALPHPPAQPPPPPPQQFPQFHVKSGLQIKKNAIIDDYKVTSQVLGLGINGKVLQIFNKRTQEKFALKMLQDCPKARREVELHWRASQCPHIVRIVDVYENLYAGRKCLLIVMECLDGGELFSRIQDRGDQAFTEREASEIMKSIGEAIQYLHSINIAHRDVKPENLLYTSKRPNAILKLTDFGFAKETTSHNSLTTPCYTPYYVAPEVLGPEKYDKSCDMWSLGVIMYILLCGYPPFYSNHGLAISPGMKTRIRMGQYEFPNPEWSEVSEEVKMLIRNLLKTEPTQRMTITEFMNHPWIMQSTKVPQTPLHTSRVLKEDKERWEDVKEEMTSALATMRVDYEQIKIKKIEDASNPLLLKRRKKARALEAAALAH
Sequence of Tyrosine-protein kinase Fgr (Homo sapiens) (P09769 2-529 limits assumed): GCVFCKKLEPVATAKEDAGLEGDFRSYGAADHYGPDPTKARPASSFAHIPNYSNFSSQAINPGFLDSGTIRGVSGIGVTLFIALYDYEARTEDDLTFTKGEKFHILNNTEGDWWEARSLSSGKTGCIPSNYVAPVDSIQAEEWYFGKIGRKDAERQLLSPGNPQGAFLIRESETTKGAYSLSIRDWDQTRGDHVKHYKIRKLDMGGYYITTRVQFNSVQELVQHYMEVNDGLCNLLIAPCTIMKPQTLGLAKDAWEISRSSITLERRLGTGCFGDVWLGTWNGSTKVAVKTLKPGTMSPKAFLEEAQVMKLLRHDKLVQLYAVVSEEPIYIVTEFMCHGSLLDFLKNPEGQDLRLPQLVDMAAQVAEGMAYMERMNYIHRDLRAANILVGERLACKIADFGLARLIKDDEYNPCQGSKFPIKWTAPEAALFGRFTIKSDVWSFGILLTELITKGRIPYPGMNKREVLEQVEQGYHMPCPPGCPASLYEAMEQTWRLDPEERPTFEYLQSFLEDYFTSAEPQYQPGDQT
Sequence of Casein kinase I isoform delta (P48730 whole entry, looked up, canonical isoform): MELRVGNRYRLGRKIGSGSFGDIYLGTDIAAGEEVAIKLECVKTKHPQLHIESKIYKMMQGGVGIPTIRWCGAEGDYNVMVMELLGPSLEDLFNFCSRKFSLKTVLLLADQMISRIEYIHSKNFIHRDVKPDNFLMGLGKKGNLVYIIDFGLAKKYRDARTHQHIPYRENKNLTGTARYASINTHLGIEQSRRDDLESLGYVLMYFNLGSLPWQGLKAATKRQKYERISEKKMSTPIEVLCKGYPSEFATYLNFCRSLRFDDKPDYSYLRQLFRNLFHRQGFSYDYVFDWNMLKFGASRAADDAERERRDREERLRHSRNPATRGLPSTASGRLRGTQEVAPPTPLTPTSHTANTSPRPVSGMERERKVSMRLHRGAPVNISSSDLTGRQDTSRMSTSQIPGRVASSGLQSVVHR

In turn, `Cc1cc([C@@H](C)Nc2ccccc2C(=O)O)c2nc(N3CCOCC3)cc(=O)n2c1` [AZD-6482] gave a % of control in experiment [1] of 100%.
Compound `CN(C)C/C=C/C(=O)Nc1ccc(C(=O)N2CCCC(Nc3ncc(Cl)c(-c4c[nH]c5ccccc45)n3)C2)cc1` (stereo unspecified) showed a % of control in [2] of 92%.
Turning to `CCC(=O)N1CCN(c2ccc(-n3c(=O)ccc4cnc5ccc(-c6cnc7ccccc7c6)cc5c43)cc2C(F)(F)F)CC1`, the % of control in [3] was 27%.
As to `C=CC(=O)Nc1cc(-n2c(=O)ccc3cnc4ccc(-c5ccc(NS(C)(=O)=O)cc5)cc4c32)ccc1C`, the % of control in experiment [4] (at 1 µM) worked out at 5.6%; in [4] (at 10 µM), 3.9%.
Regarding `CNCCN1CCC(c2cc(CN(C)C(=O)c3cccc(Oc4ccccc4)c3)ccn2)CC1`, the % activity in experiment [5] was above 90%.
Turning to `CNC(=O)Nc1ccc(-c2nc(N3CC4CCC(C3)O4)c3cnn(C4CCC5(CC4)OCCO5)c3n2)cc1`, the % of control in [6] stood at 92%. Besides, the % of inhibition in experiment [7] came out at 4%.
On to `CC[C@@H]1[C@H](F)C(=O)N[C@@H]1COc1nccc2cc(C(N)=O)c(OC)cc12` [ZIMLOVISERTIB], for which the % of inhibition in experiment [8] is 3.5%.
As for `COCC(=O)NC/C=C/c1ccc2ncnc(Nc3ccc(Oc4ccc(C)nc4)c(C)c3)c2c1` [CP-724714], the % of control in experiment [9] was 76%.
Regarding `O[C@H]1CC[C@H](Nc2ncc3nc(Nc4c(F)cc(F)cc4F)n([C@H]4CCOC4)c3n2)CC1`, the % of control in [10] amounted to 93%.
